Measurements published in the NIST ThermoML archive (doi:10.1016/j.jct.2014.03.001).
Numbers after ± are expanded uncertainties.

Assays:
[1] = mn = molality of the nth substance listed, in mol/kg; details: 84.51 kPa, Liquid; for speed of sound: Frequency=3 MHz, Sing-around technique in a fixed-path interferometer; for mass density: Vibrating tube method
[2] = 313.15 K; 84.51 kPa; Liquid; Frequency=3 MHz; Sing-around technique in a fixed-path interferometer

| speed of sound ([1]; 313.15 K, m2 = 0) | speed of sound ([1]; 288.15 K, m1 = 0.035) | mass density ([1]; 288.15 K, m1 = 0.035) | speed of sound ([1]; 293.15 K, m1 = 0.035) | mass density ([1]; 293.15 K, m1 = 0.035) | speed of sound ([1]; 298.15 K, m1 = 0.035) | mass density ([1]; 298.15 K, m1 = 0.035) | speed of sound ([1]; 303.15 K, m1 = 0.035) | mass density ([1]; 303.15 K, m1 = 0.035) | speed of sound ([1]; 308.15 K, m1 = 0.035) | mass density ([1]; 308.15 K, m1 = 0.035) | speed of sound ([1]; 313.15 K, m1 = 0.035) | mass density ([1]; 313.15 K, m1 = 0.035) | speed of sound [2] | SMILES |
| --- | --- | --- | --- | --- | --- | --- | --- | --- | --- | --- | --- | --- | --- | --- |
| 1529.2 ± 1.2 m/s | – | – | – | – | – | – | – | – | – | – | – | – | – | O [water] + CCCCCCCCCCCCn1cc[n+](C)c1.[Br-] |
| – | 1474.7 ± 1.6 m/s | 1005.71 ± 0.26 kg/m3 | 1490.6 ± 1.6 m/s | 1004.75 ± 0.26 kg/m3 | 1504.5 ± 1.6 m/s | 1003.53 ± 0.26 kg/m3 | 1516.7 ± 1.6 m/s | 1002.08 ± 0.26 kg/m3 | 1527.1 ± 1.6 m/s | 1000.42 ± 0.26 kg/m3 | 1536 ± 1.6 m/s | 998.572 ± 0.26 kg/m3 | – | O=C([O-])CC(O)(CC(=O)[O-])C(=O)[O-].[Na+].[Na+].[Na+] [trisodium citrate] + O |
| – | 1473.1 ± 1.4 m/s | 1003.04 ± 0.17 kg/m3 | 1489.1 ± 1.4 m/s | 1002.09 ± 0.17 kg/m3 | 1503 ± 1.4 m/s | 1000.88 ± 0.17 kg/m3 | 1515.2 ± 1.4 m/s | 999.439 ± 0.17 kg/m3 | 1525.7 ± 1.4 m/s | 997.791 ± 0.17 kg/m3 | 1534.6 ± 1.4 m/s | 995.95 ± 0.17 kg/m3 | – | O=C([O-])[O-].[Na+].[Na+] [sodium carbonate] + O |
| – | 1471.1 ± 1.6 m/s | 1002.4 ± 0.26 kg/m3 | 1487.1 ± 1.6 m/s | 1001.48 ± 0.26 kg/m3 | 1501.3 ± 1.6 m/s | 1000.31 ± 0.26 kg/m3 | 1513.5 ± 1.6 m/s | 998.899 ± 0.26 kg/m3 | 1524 ± 1.6 m/s | 997.276 ± 0.26 kg/m3 | – | 995.455 ± 0.26 kg/m3 | – | [Cl-].[Cl-].[Mg+2] [magnesium chloride] + O |
| – | 1468.2 ± 1.4 m/s | 999.719 ± 0.17 kg/m3 | 1484.2 ± 1.4 m/s | 998.814 ± 0.17 kg/m3 | 1498.4 ± 1.4 m/s | 997.645 ± 0.17 kg/m3 | 1510.7 ± 1.4 m/s | 996.243 ± 0.17 kg/m3 | 1521.3 ± 1.4 m/s | 994.624 ± 0.18 kg/m3 | 1530.4 ± 1.4 m/s | 992.807 ± 0.18 kg/m3 | – | Cl.N [ammonium chloride (NH4Cl)] + O |
| – | – | – | – | – | – | – | – | – | – | – | – | – | 1529.2 ± 1.2 m/s | O [water] |
| – | 1468.8 ± 1.5 m/s | 1000.55 ± 0.2 kg/m3 | 1484.9 ± 1.5 m/s | 999.636 ± 0.2 kg/m3 | – | 998.457 ± 0.2 kg/m3 | 1511.3 ± 1.5 m/s | 997.046 ± 0.2 kg/m3 | 1521.9 ± 1.5 m/s | 995.419 ± 0.2 kg/m3 | 1530.9 ± 1.5 m/s | 993.592 ± 0.2 kg/m3 | – | [Cl-].[Na+] [sodium chloride] + O |
| – | 1470.9 ± 1.5 m/s | 1003.96 ± 0.2 kg/m3 | 1486.8 ± 1.5 m/s | 1003.05 ± 0.2 kg/m3 | 1500.8 ± 1.5 m/s | 1001.87 ± 0.2 kg/m3 | 1513 ± 1.5 m/s | 1000.46 ± 0.2 kg/m3 | 1523.5 ± 1.5 m/s | 998.83 ± 0.2 kg/m3 | 1532.4 ± 1.5 m/s | 997.003 ± 0.2 kg/m3 | – | [Cl][Fe]([Cl])[Cl] [ferric chloride] + O |
| – | 1468.5 ± 1.5 m/s | 1000.79 ± 0.2 kg/m3 | 1484.5 ± 1.5 m/s | 999.873 ± 0.2 kg/m3 | 1498.7 ± 1.5 m/s | 998.698 ± 0.2 kg/m3 | 1510.9 ± 1.5 m/s | 997.288 ± 0.2 kg/m3 | 1521.5 ± 1.5 m/s | 995.661 ± 0.2 kg/m3 | 1530.5 ± 1.5 m/s | 993.836 ± 0.2 kg/m3 | – | [Cl-].[K+] [potassium chloride] + O |
| – | 1472.6 ± 1.6 m/s | 1003.68 ± 0.26 kg/m3 | 1488.6 ± 1.6 m/s | 1002.73 ± 0.26 kg/m3 | 1502.6 ± 1.6 m/s | 1001.52 ± 0.26 kg/m3 | 1514.8 ± 1.6 m/s | 1000.09 ± 0.26 kg/m3 | 1525.3 ± 1.6 m/s | 998.436 ± 0.26 kg/m3 | 1534.2 ± 1.6 m/s | 996.589 ± 0.26 kg/m3 | – | O=S(=O)([O-])[O-].[Na+].[Na+] [sodium sulfate] + O |

| SMILES | speed of sound ([1]; 313.15 K, m2 = 0) | speed of sound ([1]; 288.15 K, m1 = 0.035) | mass density ([1]; 288.15 K, m1 = 0.035) | speed of sound ([1]; 293.15 K, m1 = 0.035) | mass density ([1]; 293.15 K, m1 = 0.035) | speed of sound ([1]; 298.15 K, m1 = 0.035) | mass density ([1]; 298.15 K, m1 = 0.035) | speed of sound ([1]; 303.15 K, m1 = 0.035) | mass density ([1]; 303.15 K, m1 = 0.035) | speed of sound ([1]; 308.15 K, m1 = 0.035) | mass density ([1]; 308.15 K, m1 = 0.035) | speed of sound ([1]; 313.15 K, m1 = 0.035) | mass density ([1]; 313.15 K, m1 = 0.035) | speed of sound [2] |
| --- | --- | --- | --- | --- | --- | --- | --- | --- | --- | --- | --- | --- | --- | --- |
| O=[N+]([O-])[O-].[Na+] [sodium nitrate] + O | – | 1468.2 ± 1.5 m/s | 1001.14 ± 0.2 kg/m3 | 1484.2 ± 1.5 m/s | 1000.21 ± 0.2 kg/m3 | 1498.3 ± 1.5 m/s | 999.017 ± 0.2 kg/m3 | 1510.5 ± 1.5 m/s | 997.592 ± 0.2 kg/m3 | 1521.1 ± 1.5 m/s | 995.954 ± 0.2 kg/m3 | 1530.1 ± 1.5 m/s | 994.12 ± 0.2 kg/m3 | – |
| C[N+](C)(C)C.[Cl-] [tetramethylammonium chloride] + O | – | 1470.2 ± 1.8 m/s | 999.201 ± 0.42 kg/m3 | 1486.1 ± 1.9 m/s | 998.29 ± 0.42 kg/m3 | 1500.1 ± 1.9 m/s | 997.12 ± 0.42 kg/m3 | 1512.3 ± 1.9 m/s | 995.716 ± 0.42 kg/m3 | 1522.8 ± 1.9 m/s | 994.093 ± 0.42 kg/m3 | 1531.7 ± 1.9 m/s | 992.272 ± 0.42 kg/m3 | – |
